pIC50: −log10 of the molar value.

The target of the first test is T1, Nav 1.7 (Homo sapiens, UniProt Q15858).
T1 construct: expressed in transfected cells
T1 sequence (Q15858 whole entry): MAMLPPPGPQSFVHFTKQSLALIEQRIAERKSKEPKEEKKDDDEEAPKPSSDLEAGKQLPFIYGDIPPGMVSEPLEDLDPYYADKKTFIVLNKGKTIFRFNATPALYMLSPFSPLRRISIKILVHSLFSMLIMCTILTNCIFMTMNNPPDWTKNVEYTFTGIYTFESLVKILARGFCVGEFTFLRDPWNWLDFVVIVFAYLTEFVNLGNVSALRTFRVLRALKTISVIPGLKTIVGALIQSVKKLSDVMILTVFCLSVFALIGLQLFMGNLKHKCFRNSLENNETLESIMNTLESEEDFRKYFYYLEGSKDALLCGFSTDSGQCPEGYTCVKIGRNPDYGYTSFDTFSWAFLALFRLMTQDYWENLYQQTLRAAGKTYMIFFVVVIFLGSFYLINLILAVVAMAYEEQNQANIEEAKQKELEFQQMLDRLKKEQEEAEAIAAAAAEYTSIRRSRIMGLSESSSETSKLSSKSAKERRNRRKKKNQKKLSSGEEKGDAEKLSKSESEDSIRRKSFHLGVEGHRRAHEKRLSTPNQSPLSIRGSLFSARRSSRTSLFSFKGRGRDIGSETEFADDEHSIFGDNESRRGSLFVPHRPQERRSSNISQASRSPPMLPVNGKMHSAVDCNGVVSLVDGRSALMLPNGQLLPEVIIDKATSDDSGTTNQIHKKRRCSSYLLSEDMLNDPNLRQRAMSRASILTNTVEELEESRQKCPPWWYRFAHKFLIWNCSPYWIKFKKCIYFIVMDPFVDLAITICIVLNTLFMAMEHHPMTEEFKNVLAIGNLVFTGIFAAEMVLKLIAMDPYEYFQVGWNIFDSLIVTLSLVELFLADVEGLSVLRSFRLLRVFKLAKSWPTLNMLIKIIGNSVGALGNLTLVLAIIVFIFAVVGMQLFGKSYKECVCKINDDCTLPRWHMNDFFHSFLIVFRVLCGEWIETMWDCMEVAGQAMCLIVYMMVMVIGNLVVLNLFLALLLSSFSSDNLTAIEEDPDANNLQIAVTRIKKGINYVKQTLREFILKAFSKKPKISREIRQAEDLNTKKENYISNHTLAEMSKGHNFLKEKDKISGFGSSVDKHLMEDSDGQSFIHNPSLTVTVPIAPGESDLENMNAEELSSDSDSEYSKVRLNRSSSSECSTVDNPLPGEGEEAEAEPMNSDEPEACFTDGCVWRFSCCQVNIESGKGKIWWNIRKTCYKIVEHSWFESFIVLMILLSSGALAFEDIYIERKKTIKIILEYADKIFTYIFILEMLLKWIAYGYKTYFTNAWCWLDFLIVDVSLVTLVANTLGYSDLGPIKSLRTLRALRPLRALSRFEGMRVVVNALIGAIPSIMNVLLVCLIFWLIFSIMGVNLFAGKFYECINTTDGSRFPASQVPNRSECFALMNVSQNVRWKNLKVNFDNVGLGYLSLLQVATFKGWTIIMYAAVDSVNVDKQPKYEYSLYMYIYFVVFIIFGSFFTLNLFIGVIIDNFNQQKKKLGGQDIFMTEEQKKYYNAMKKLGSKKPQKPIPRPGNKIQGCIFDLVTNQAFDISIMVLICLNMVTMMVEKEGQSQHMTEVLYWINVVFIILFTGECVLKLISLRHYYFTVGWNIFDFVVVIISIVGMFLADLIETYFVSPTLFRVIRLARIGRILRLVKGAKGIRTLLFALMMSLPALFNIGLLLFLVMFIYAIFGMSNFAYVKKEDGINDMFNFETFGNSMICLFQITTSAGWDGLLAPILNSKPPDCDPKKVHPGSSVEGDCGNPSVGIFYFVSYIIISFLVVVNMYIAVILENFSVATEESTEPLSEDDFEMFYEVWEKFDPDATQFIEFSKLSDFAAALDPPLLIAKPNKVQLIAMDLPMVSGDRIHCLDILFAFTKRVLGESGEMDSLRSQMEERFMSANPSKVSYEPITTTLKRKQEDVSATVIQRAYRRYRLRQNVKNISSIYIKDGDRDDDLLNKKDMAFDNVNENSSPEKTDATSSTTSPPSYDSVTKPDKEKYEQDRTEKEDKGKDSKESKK
Kind of test: Whole-cell voltage clamp electrophysiology, automated patch clamp (marker c in Table of Examples). The note with it: marker c = Automated patch clamp data; read-out: Nav 1.7 activity. It is filed as cell-based. From the text:
a.IonWork Quattro data, b=Manual patch clamp data, c=Automated patch clamp data M=Method
Whole-Cell Voltage Clamp Electrophysiology Assay
Patch-clamp electrophysiology is considered the gold standard technique for investigation of ion channel function and pharmacology. Using this method, sodium channel currents can be measured in cells, which stably (or transiently) express the sodium channel subtype of interest. Application of compounds during such experiments provides a functional measure of the activity and potency of compounds affecting the ion channel of interest.
Electrophysiological studies can be performed using automated or manual patch-clamp techniques. Automated patch-clamp instruments suitable for this work include the Ion Works HT (MDS), Ion Works Quattro (MDS), PatchLiner (Nanion technologies), Port-A-Patch (Nanion technologies), QPatch (Sophion) or any other suitable platform.
For recording in automated patch-clamp instruments, cells expressing the voltage-gated sodium channel subtype of interest are dispensed in appropriate chips (plates with more than one recording chambers each containing one or more apertures to generate whole-cell patches), as provided by the manufacturer. Typically, the whole-cell perforated patch configuration is used for probing the pharmacology of compounds in automated patch-clamp electrophysiology on sodium channels. Extracellular and intracellular buffers for such experiments are composed according to the literature, or according to the instructions provided by the manufacturer of the instruments. Test solutions, which contain the compounds to be tested, are applied to the cells expressing the sodium channel of interest by a pipetting system, typically integrated into the robots.
A suitable voltage stimulus protocol is used to activate voltage-gated sodium channel proteins of interest. A typical stimulus protocol may consist of sweeps of sequential voltage pulses starting from a holding potential (i.e. −65 mV), to a more positive and depolarising test pulse potential (i.e. −10 mV) and finally to a more negative and hyperpolarising potential (i.e. −100 mV). According to the biophysics of the voltage-gated ion channel of interest and interest in channel configuration the voltages and durations of the pulses as well as the overall frequency of sweeps applied might vary. Accordingly, a stimulus protocol was designed to assess compounds due to their potential to block NaV1.7 channels primarily in inactivated state. Selectivity over other voltage-gated sodium channel members was assessed by protocols that reflect the native function of the channels (i.e. heart rate or firing of neurons).
A general note: In patch-clamp work, channel activity is measured electrically.
As to `CN(c1ccccc1)c1nc(N)nc(-c2noc(N3C[C@@H]4[C@@H](COCC(F)(F)F)[C@@H]4C3)n2)n1` [Example 387, 2-N-methyl-2-N-phenyl-6-{5-[6-[(2,2,2-trifluoroethoxy)methyl]-3-azabicyclo[3.1.0]hexan-3-yl]-1,2,4-oxadiazol-3-yl}-1,3,5-triazine-2,4-diamine], the pIC50 is 5.85.

As to `Nc1nc(Nc2cccc(F)c2)nc(-c2noc(C(=O)N3CCOCC3)n2)n1` [Example 232, 2-N-(3-fluorophenyl)-6-{5-[(morpholin-4-yl)carbonyl]-1,2,4-oxadiazol-3-yl}-1,3,5-triazine-2,4-diamine], the pIC50 was 5.03. Still for that read-out and setting: the value for `CN(c1ccccc1)c1nc(N)nc(-c2noc(C(=O)Nc3ccc(C(F)(F)F)nc3)n2)n1` [Example 263, 3-{4-amino-6-[methyl(phenyl)amino]-1,3,5-triazin-2-yl}-N-[6-(trifluoromethyl)pyridin-3-yl]-1,2,4-oxadiazole-5-carboxamide] was 5.22; that for `CN(c1ccccc1)c1nc(N)nc(-c2noc(N3Cc4cncnc4C3)n2)n1` [Example 323, 2-N-Methyl-2-N-phenyl-6-(5-{5H,6H,7H-pyrrolo[3,4-d]pyrimidin-6-yl}-1,2,4-oxadiazol-3-yl)-1,3,5-triazine-2,4-diamine] was 5.19. On the same count and under the same terms, the value for `Nc1ccc(-c2nc(-c3nc(N)nc(Nc4cccc(F)c4)n3)no2)nc1` [Example 249, 6-[5-(5-aminopyridin-2-yl)-1,2,4-oxadiazol-3-yl]-2-N-(3-fluorophenyl)-1,3,5-triazine-2,4-diamine] was 5.04; that for `CN(c1ccccc1)c1nc(N)nc(-c2noc(C3CN(CCC(F)(F)F)C3)n2)n1` [Example 385, 2-N-methyl-2-N-phenyl-6-{5-[1-(3,3,3-trifluoropropyl)azetidin-3-yl]-1,2,4-oxadiazol-3-yl}-1,3,5-triazine-2,4-diamine] was 5.65; that for `CN1CCN(C(=O)c2nc(-c3nc(N)nc(N(C)c4ccccc4)n3)no2)CC1` [Example 344, 2-N-methyl-6-{5-[(4-methylpiperazin-1-yl)carbonyl]-1,2,4-oxadiazol-3-yl}-2-N-phenyl-1,3,5-triazine-2,4-diamine] was 5.24. `Nc1nc(Nc2cccc(F)c2)nc(-c2noc(C(=O)N[C@@H]3CCOC3)n2)n1` [Example 233, 3-{4-amino-6-[(3-fluorophenyl)amino]-1,3,5-triazin-2-yl}-N-[(3R)-oxolan-3-yl]-1,2,4-oxadiazole-5-carboxamide]: the pIC50 is 5.25. Still for that read-out and setting: then `CN(c1ccccc1)c1nc(N)nc(-c2noc(-c3ccc(CSCC(F)(F)F)nc3)n2)n1` [Example 316, 2-N-methyl-2-N-phenyl-6-[5-(6-{[(2,2,2-trifluoroethyl)sulfanyl]methyl}pyridin-3-yl)-1,2,4-oxadiazol-3-yl]-1,3,5-triazine-2,4-diamine], with 7.89; and `Nc1nc(Nc2ccccc2)nc(-c2noc(-c3ncccc3C(F)(F)F)n2)n1` [Example 430, 2-N-phenyl-6-{5-[3-(trifluoromethyl)pyridin-2-yl]-1,2,4-oxadiazol-3-yl}-1,3,5-triazine-2,4-diamine], with 6.84. For the compound `Nc1nc(Nc2cccc(F)c2)nc(-c2noc(NC3CCCC3)n2)n1` [Example 235, 6-[5-(cyclopentylamino)-1,2,4-oxadiazol-3-yl]-2-N-(3-fluorophenyl)-1,3,5-triazine-2,4-diamine], the pIC50 was 5.77. Still for that read-out and setting: then `Cc1ccc(-c2nc(-c3nc(N)nc(N(C)c4ccccc4)n3)no2)cn1` [Example 283, 2-N-methyl-6-[5-(6-methylpyridin-3-yl)-1,2,4-oxadiazol-3-yl]-2-N-phenyl-1,3,5-triazine-2,4-diamine], with 5.86. Consider `CN(c1ccccc1)c1nc(N)nc(-c2noc(-c3ncccc3C(=O)NCC3CC3)n2)n1` [Example 369, 2-(3-{4-amino-6-[methyl(phenyl)amino]-1,3,5-triazin-2-yl}-1,2,4-oxadiazol-5-yl)-N-(cyclopropylmethyl)pyridine-3-carboxamide], for which the pIC50 is 5.88. Regarding `CC(Oc1ccc(-c2nc(-c3nc(N)nc(N(C)c4ccccc4)n3)no2)cn1)C(F)(F)F` (centres unmarked) [Example 357, 2-N-methyl-2-N-phenyl-6-(5-{6-[(1,1,1-trifluoropropan-2-yl)oxy]pyridin-3-yl}-1,2,4-oxadiazol-3-yl)-1,3,5-triazine-2,4-diamine], the pIC50 was 7.26.

`CN(c1ccccc1)c1nc(N)nc(-c2noc(-c3ccc(C(F)(F)F)nc3)n2)n1` [Example 267, 2-N-methyl-2-N-phenyl-6-{5-[6-(trifluoromethyl)pyridin-3-yl]-1,2,4-oxadiazol-3-yl}-1,3,5-triazine-2,4-diamine]: the pIC50 is less than 5.08. Consider `Nc1nc(Nc2ccccc2)nc(-c2noc(N3C[C@@H]4[C@@H](COCC5CC5)[C@@H]4C3)n2)n1` [Example 393, 6-{5-[6-[(cyclopropylmethoxy)methyl]-3-azabicyclo[3.1.0]hexan-3-yl]-1,2,4-oxadiazol-3-yl}-2-N-phenyl-1,3,5-triazine-2,4-diamine], for which the pIC50 was 6.05. For the compound `CN(c1ccccc1)c1nc(N)nc(-c2noc(-c3ccc(OCCC(F)(F)F)nc3)n2)n1` [Example 359, 2-N-methyl-2-N-phenyl-6-{5-[6-(3,3,3-trifluoropropoxy)pyridin-3-yl]-1,2,4-oxadiazol-3-yl}-1,3,5-triazine-2,4-diamine], the pIC50 is 7.62.

For the compound `Nc1nc(Nc2ccc(F)cc2)nc(-c2noc(-c3nccs3)n2)n1` [Example 241], the pIC50 was 7.05. Regarding `Nc1nc(Nc2ccccc2)nc(-c2noc(C(=O)NC3CCCC3)n2)n1` [Example 218, 3-[4-amino-6-(phenylamino)-1,3,5-triazin-2-yl]-N-cyclopentyl-1,2,4-oxadiazole-5-carboxamide], the pIC50 was 5.60. For the compound `COCCN(c1ccccc1)c1nc(N)nc(-c2noc(-c3ccc(COCC(F)(F)F)nc3)n2)n1` [Example 312, 2-N-(2-Methoxyethyl)-2-N-phenyl-6-(5-{6-[(2,2,2-trifluoroethoxy)methyl]pyridin-3-yl}-1,2,4-oxadiazol-3-yl)-1,3,5-triazine-2,4-diamine], the pIC50 was 6.86.

The same test, now with this note: marker c: Automated patch clamp data; read-out: Nav 1.7 activity.
Take `CN(c1ccccc1)c1nc(N)nc(-c2noc(-c3cnco3)n2)n1` [Example 127, N-Methyl-6-(5-oxazol-5-yl-[1,2,4]oxadiazol-3-yl)-N-phenyl-[1,3,5]triazine-2,4-diamine]: the pIC50 is 5.68. Take `COc1cccc(-c2nc(-c3nc(N)nc(N(C)c4ccccc4F)n3)no2)c1` [Example 88, N-(2-Fluoro-phenyl)-6-[5-(3-methoxy-phenyl)-[1,2,4]oxadiazol-3-yl]-N-methyl-[1,3,5]triazine-2,4-diamine]: the pIC50 was 6.44.

On to `CN(c1ccccc1)c1nc(N)nc(-c2noc(-c3c[nH]cn3)n2)n1` [Example 59, 6-[5-(1H-Imidazol-4-yl)-[1,2,4]oxadiazol-3-yl]-N-methyl-N-phenyl-[1,3,5]triazine-2,4-diamine], for which the pIC50 is 5.09. On to `CCOc1ccc(-c2nc(-c3nc(N)nc(N(C)c4ccccc4)n3)no2)cn1` [Example 148, 6-[5-(6-ethoxypyridin-3-yl)-1,2,4-oxadiazol-3-yl]-2-N-methyl-2-N-phenyl-1,3,5-triazine-2,4-diamine], for which the pIC50 is 6.49.

Regarding `CC(C)S(=O)(=O)CC1CCN(c2nc(-c3nc(N)nc(N(C)c4ccccc4)n3)no2)CC1` [Example 181, 2-N-methyl-2-N-phenyl-6-(5-{4-[(propane-2-sulfonyl)methyl]piperidin-1-yl}-1,2,4-oxadiazol-3-yl)-1,3,5-triazine-2,4-diamine], the pIC50 was 5.04. The same measure, in the same setting: the value for `CN(c1ccccc1)c1nc(N)nc(-c2noc(-c3ncc[nH]3)n2)n1` [Example 65, 6-(5-Imidazol-2-yl-[1,2,4]oxadiazol-3-yl)-N-methyl-N-phenyl-[1,3,5]triazine-2,4-diamine] was 5.28; that for `CN(C)CCN(c1ccccc1)c1nc(N)nc(-c2noc(-c3ccco3)n2)n1` [Example 69, N-(2-Dimethylamino-ethyl)-6-(5-furan-2-yl-[1,2,4]oxadiazol-3-yl)-N-phenyl-[1,3,5]triazine-2,4-diamine] was 5.86; that for `CN(c1ccccc1)c1nc(N)nc(-c2noc(C3CCCCO3)n2)n1` (centres unmarked) [Example 56, N-Methyl-N-phenyl-6-[5-(tetrahydro-pyran-2-yl)-[1,2,4]oxadiazol-3-yl]-[1,3,5]triazine-2,4-diamine] was 5.34.

Consider `CCN(c1ccccc1)c1nc(N)nc(-c2noc(-c3ccc(OC)cc3)n2)n1` [Example 190, 2-N-ethyl-6-[5-(4-methoxyphenyl)-1,2,4-oxadiazol-3-yl]-2-N-phenyl-1,3,5-triazine-2,4-diamine], for which the pIC50 is 6.97.

For the origin of these results see patent US8895733B2 (Novartis AG, priority 2010, dated 2014).
